Test results from patent publication US20250027956A1, “Improved Gamma-Secretase Inhibitor Screening Assays” (VIB VZW, priority 2021, published 2025).

How the values were obtained:
PSENdKO cells [1] = experiment: Lysosomal Ca2+ content, Fura-2AM loaded cells challenged with GPN, PSENdKO cells; type: cell-based, mouse; design: lysosomal Ca2+ content: dose or concentration left out as unconfirmed
Excerpt: Diluent treatment alone (in most cases DMSO, water for the cyclodextrin) was used as vehicle control.
Briefly, the web-based CRISPR design tool was used to select the sequence to be targeted in mouse PSEN1 and PSEN2 (i.e. 5′-[…]-3′ and 5′-[…]-3′, respectively). Oligo pairs encoding guide sequences (obtained from Integrated DNA Technologies, IDT) were annealed and ligated into the pX330 plasmid (Addgene) according to the Zhang's laboratory protocol (https://www.addgene.org/crispr/zhang/). MEF cells were then transfected with the pX330-PSEN1 and PX330-PSEN2, using Fugene HD (Promega), in accordance with the manufacturer protocol. Selection of PSENdKO clones was achieved through serial dilution and confirmed by WB analysis. Further depletion of APP in different PSENdKO clones was achieved through electroporation of RNP complexes. […]
Cells were rinsed three times and left to equilibrate for at least 15-20 min (RT). […] Briefly, cells were segmented manually and fluorescence intensities were measured over time. Fura-2 signals were corrected to obtain ΔF/F0 (F0 being the initial signal recorded). For each cell, the area under the curve, corresponding to the aforementioned stimulation, was measured using GraphPad Prism.

PSENdKO cells [2] = experiment: Confocal immunofluorescence (compartment size, Mander's colocalization, filipin) in PSENdKO cells; type: cell-based, mouse
Experimental: For OSW-1 (30310-1, Sanbio/Cayman Chemical), cells were treated overnight with 10 nM. Diluent treatment alone (in most cases DMSO, water for the cyclodextrin) was used as vehicle control. KO cell lines: PSEN1 and 2 KO cell lines (PSENdKO) cell lines were established as described in ([…] al 2020). Briefly, the web-based CRISPR design tool was used to select the sequence to be targeted in mouse PSEN1 and PSEN2 ([NT] and [NT], respectively). Oligo pairs encoding guide sequences (obtained from Integrated DNA Technologies, IDT) were annealed and ligated into the pX330 plasmid (Addgene) according to the Zhang's laboratory protocol (https://www.addgene.org/crispr/zhang/). MEF cells were then transfected with the pX330-PSEN1 and PX330-PSEN2, using Fugene HD (Promega), in accordance with the manufacturer protocol. Selection of PSENdKO clones was achieved through serial dilution and confirmed by WB analysis. Further depletion of APP in different PSENdKO clones was achieved through electroporation of RNP complexes. Single guide RNA (sgRNAs) were designed to either target exon 2 ([NT]) or exon 3 ([NT]). The Neon Transfection System (ThermoFisher Scientific, one pulse, 1650 V, 20 ms) was used to electroporate 150 000 cells with 10 pmol of Cas 9 (IDT) and 20 pmol of single guide RNA (IDT). As above, cells were amplified and selection of independent APPKO clones was performed with serial dilutions and WB characterization. All clones of interest were sequenced using Sanger sequencing. […] Primary antibodies diluted in the same blocking buffer were incubated overnight at 4° C. Following PBS washing steps, (goat- or donkey-) secondary antibodies conjugated with Alexa fluor dyes (Alexa 488, 568, or 647, all ThermoFisher Scientific) diluted in the blocking buffer were incubated for 1 h, RT. Coverslips were then mounted with Mowiol (Sigma). When cholesterol labelling was performed, fixed cells were treated with 200 μg·ml-1 filipin (F4767, Sigma) for 2 h at RT, prior to permeabilization. Acquisition: Z stack images (spacing 2 μm), or a median plan were acquired on a Nikon 1AR connected to an inverse Nikon Ti-2000 equipped with an oil-immersion plan APO 60× objective lenses with 1.40 NA. Data were collected using Nikon Imaging Software. […] Image analysis: All image analysis was done using Image J software (Schindelin et al 2012; Schneider et al 2012). To measure the area of the organelle of interest (early endosomes-EEA1; lysosomes-Lamp1; retromer-VPS35 . . . ), segmentation was realized using automatic thresholding. The following masks were used: Mean (EEA1), Ostu (Lamp1), Intermodes (VPS35). Overlap of signal of interests were quantified with Manders colocalisation index (Plugin Jacob, (Bolte and Cordelieres 2006)). When indicated, co-localization data was normalized to the reference group for multiple comparisons.

NPC disease models = conditions: cited from earlier work
WT MEFs = experiment: Lysosomal Ca2+ content, Fura-2AM loaded cells challenged with GPN, WT cells; type: cell-based, mouse
Experimental: Cells were treated with the following drugs, usually for 4 days, unless otherwise stated: DAPT (2634/10, Tocris) 1 μM final; Inhibitor X (565771-250 μg, Calbiochem/Merck) 1 μM final; β-Secretase Inhibitor IV (565788, Calbiochem/Merck) 2 μM final, (2-Hydroxypropyl)-γ-cyclodextrin (H125-5G-I, Sigma Aldrich) 1 mM final; Adam 10 inhibitor G1254023X (SML0789, Sigma Aldrich) 3 μM final. For OSW-1 (30310-1, Sanbio/Cayman Chemical), cells were treated overnight with 10 nM. Diluent treatment alone (in most cases DMSO, water for the cyclodextrin) was used as vehicle control.
Cytosolic response: Ca2+ responses were measured as previously described in Coen et al 2012. Briefly, cells (0.005 to 0.01×106) were seeded two to three days prior to the experiment on glass coverslips (631-0153, VWR). On the day of recording, cells were rinsed three times in Ringer solution (155 mM NaCl, 5 mM KCl, 2 mM MgCl2, 2 mM CaCl2, 10 mM Glucose, 10 mM HEPES, 2 mM NaH2PO4·2H20; pH 7.3), and loaded 1 μM Fura2-AM (F1221, ThermoFisher Scientific) for 30 min (RT). Cells were rinsed three times and left to equilibrate for at least 15-20 min (RT). All acquisitions were carried out in Ringer Ca2+ free solution (same as above, albeit the 2 mM CaCl2 were replaced by 2 mM EGTA). During experiments, cells were challenged with different drugs, such as Thapsigargin (T7459, ThermoFisher Scientific, 1 μM final), GPN (ab145914, abcam, 100 μM final for MEFs, 500 μM for neurons), MLSA1 (Cat. No. 4746, Tocris, 20 μM final) or lonomycin (10634, Sigma Aldrich, 1 μM final). Images were acquired every 5 sec for 8-10 min, using an Olympus IX81 using an UAPO/340 40× oil objective (1.35 NA), operated by CellR Software (Olympus). Recordings were done using 340 and 380 nm excitation, and 530 nm emission filters. Image processing was performed using Image J Software (Schindelin et al 2012; Schneider et al 2012). Briefly, cells were segmented manually and fluorescence intensities were measured over time. Fura-2 signals were corrected to obtain ΔF/F0 (F0 being the initial signal recorded). For each cell, the area under the curve, corresponding to the aforementioned stimulation, was measured using GraphPad Prism.

LE/Ly cholesterol = conditions: cited from earlier work
[3] = test system: NPC1−/− neural stem cells; conditions: cited from earlier work
Npc1-null cells = conditions: cited from earlier work
Npc1 cats = conditions: intrathecal 120 mg every 2 weeks; cited from earlier work
[4] = test system: cultured skin fibroblasts of NPC patients; conditions: cited from earlier work
Npc1 mice = conditions: oral; cited from earlier work
cats = conditions: cited from earlier work
NPC patients = conditions: clinical trials; cited from earlier work
[5] = overnight, 10 nM, data not shown

COc1ccc(C(=O)O[C@H]2[C@H](O[C@@H]3[C@@H](OC(C)=O)[C@H](O[C@H]4C[C@H]5[C@@H]6CC=C7C[C@@H](O)CC[C@]7(C)[C@H]6CC[C@]5(C)[C@@]4(O)[C@H](C)C(=O)CCC(C)C)OC[C@@H]3O)OC[C@@H](O)[C@@H]2O)cc1 [OSW-1]
lysosomal Ca2+ dysfunction (PSENdKO cells [1]; [5]): nor did it rescue lysosomal Ca2+ dysfunction
lysosomal cholesterol staining (PSENdKO cells [2]; [5]): did not decrease lysosomal cholesterol staining

CC(/C=C/C(=O)NO)=C\[C@@H](C)C(=O)c1ccc(N(C)C)cc1 [trichostatin A]
cholesterol accumulation (NPC disease models): efficiently correct cholesterol accumulation

Cc1[nH]c2ccccc2c1CCNCc1ccc(/C=C/C(=O)NO)cc1 [LBH589]
cholesterol accumulation (NPC disease models): efficiently correct cholesterol accumulation

Nc1ccc(C(=O)Nc2cccc(-c3nc(N4CCOCC4)c4oc5ncccc5c4n3)c2)cn1 [YM201636]
Lysosomal Ca2+ levels (WT MEFs; WT cells, 2 μM, 2 h, 100 μM GPN): reduced

[O-][n+]1cccc(/C(Cl)=N/OC[C@H](O)CN2CCCCC2)c1 [arimoclomol]
clearance of cholesterol from LE/Ly (LE/Ly cholesterol): same effect

Cc1ccc(NC(=O)c2ccc(CN3CCN(C)CC3)cc2)cc1Nc1nccc(-c2cccnc2)n1 [Imatinib]
APP-CTFs in VPS35-positive organelles (PSENdKO cells [2]): significant decrease of APP-CTFs in VPS35-positive organelles
VPS35-LAMP1 co-localization (PSENdKO cells [2]; vs DMSO): lowered VPS35-LAMP1 co-localization

CC(C)C[C@H](NC(=O)[C@H](Cc1ccccc1)C[C@@H](O)[C@H](Cc1ccccc1)NC(=O)OC(C)(C)C)C(=O)N[C@@H](Cc1ccccc1)C(N)=O [InhibitorX]
lysosomal Ca2+ content (WT MEFs; WT cells, 1 μM, 4 days, normalized to DMSO): reduced

CCCC(CCC)C(=O)O [Valproic acid]
benefit in NPC1−/− neural stem cells [3]: some benefit

CCNC(=O)c1noc(-c2cc(C(C)C)c(O)cc2O)c1-c1ccc(CN2CCOCC2)cc1 [AUY922]
clearance of cholesterol from LE/Ly (LE/Ly cholesterol): clearance of cholesterol from LE/Ly

CC1(C)CC(=O)c2c(C(F)(F)F)nn(-c3ccc(C(N)=O)c(N[C@H]4CC[C@H](O)CC4)c3)c2C1 [SNX2112]
clearance of cholesterol from LE/Ly (LE/Ly cholesterol): clearance of cholesterol from LE/Ly

2-hydroxypropyl-γ-cyclodextrin [HPγCD]
lysosomal Ca2+ content (PSENdKO cells [1]; 4 days): fully restored lysosomal Ca2+ content
EEA1 area (PSENdKO cells [2]; 1 mM, 4 days): reduced EEA1 area
accumulation of membrane-tethered APP fragments in Lamp1-positive LE/Lys (PSENdKO cells [2]; 1 mM, 4 days): strongly reduced
colocalization of VPS35 with Lamp1 (PSENdKO cells [2]; 1 mM, 4 days): decreased colocalization of VPS35
filipin staining in Lamp1-positive LE/Lys (PSENdKO cells [2]; 1 mM, 4 days): Reduced filipin staining
intracellular free cholesterol levels and lysosome changes (Npc1-null cells): reduce intracellular free cholesterol levels and normalize the lysosome changes

CC(C)c1cc(-c2n[nH]c(=O)n2-c2ccc3c(ccn3C)c2)c(O)cc1O [Ganetespib]
clearance of cholesterol from LE/Ly (LE/Ly cholesterol): clearance of cholesterol from LE/Ly

CCc1cc(C(N)=O)ccc1-n1nc(C(C)C)c2c(-n3cnc(-c4cnn(C)c4)c3)ccnc21 [TAS-116]
clearance of cholesterol from LE/Ly (LE/Ly cholesterol): clearance of cholesterol from LE/Ly

2-Hydroxypropyl-beta-cyclodextrin [HP-beta-CD]
neurological dysfunction and lipid accumulation in neurons (Npc1 cats): reduced neurological dysfunction and lipid accumulation in neurons

O=C(CCCCCCC(=O)Nc1ccccc1)NO [Vorinostat, suberanilohydroxamic acid]
accumulation of lipids in the lysosomes [4]: reduces the accumulation of lipids in the lysosomes

CC(C)c1cc(C(=O)N2Cc3ccc(CN4CCN(C)CC4)cc3C2)c(O)cc1O [AT13387]
clearance of cholesterol from LE/Ly (LE/Ly cholesterol): clearance of cholesterol from LE/Ly

CCCCN1C[C@H](O)[C@@H](O)[C@H](O)[C@H]1CO [Miglustat, N-butyl-deoxynojirimycin]
accumulation of gangliosides in the brain (Npc1 mice): reduced the accumulation of gangliosides in the brain
increase of lifespan (Npc1 mice): approximately 33%
neurological progression of the disease (Npc1 mice): slowed the neurological progression of the disease
accumulation of gangliosides in the brain (cats): reduced accumulation of gangliosides in the brain
increase of lifespan (cats): approximately 74%
onset of neurological symptoms (cats): delayed onset of neurological symptoms
neurological outcome (e.g. dysphagia, supranuclear gaze palsy) (NPC patients): neurological improvement or stabilization

CO/C1=C\C(C)=C\[C@@H](C)[C@@H](O)[C@@H](C)C/C(C)=C/C=C/[C@H](OC)[C@@H]([C@@H](C)[C@@H](O)[C@H](C)[C@@]2(O)C[C@@H](O)[C@H](C)[C@@H](C(C)C)O2)OC1=O [bafilomycin1]
lysosomal Ca2+ content (WT MEFs; full alkalinization, compared with PSENdKO cells): equally affected lysosomal Ca2+ content as observed in PSENdKO cells

C=CCNC1=C2C[C@@H](C)C[C@H](OC)[C@H](O)[C@@H](C)/C=C(\C)[C@H](OC(N)=O)[C@@H](OC)/C=C\C=C(/C)C(=O)NC(=CC1=O)C2=O [17-AAG]
clearance of cholesterol from LE/Ly (LE/Ly cholesterol): clearance of cholesterol from LE/Ly
